Laboratory results as given in US8420673B2, “Fungicidal amides” (E I du Pont de Nemours and Company, priority 2007, dated 2013).
Where two headings read alike, the source gives them in different places.

Key:
Type in all cases: in vivo
Phytophthora infestans [1] = details: tomato seedlings, sprayed to run-off the day before inoculation
Plasmopara viticola = test: Test A: grape downy mildew, test suspension sprayed after inoculation, visual disease rating; details: grape seedlings, sprayed to run-off 24 h after inoculation
Phytophthora infestans [2] = details: tomato seedlings, sprayed to run-off 17 h after inoculation
[3] = no asterisk, test concentration not given

| SMILES | Test B rating (disease control) (Phytophthora infestans [1]; [3]) [%] | Test A rating (disease control) (Plasmopara viticola; [3]) [%] | Test C rating (disease control) (Phytophthora infestans [2]; [3]) [%] | Test B rating (disease control) (Phytophthora infestans [1]; compound tested at 40 ppm) [%] | Test A rating (disease control) (Plasmopara viticola; compound tested at 40 ppm) [%] | Test C rating (disease control) (Phytophthora infestans [2]; compound tested at 40 ppm) [%] |
| --- | --- | --- | --- | --- | --- | --- |
| Cc1cc(C(F)(F)F)nn1CC(=O)N1CCC(c2nc(CN[C@@H]3CCCc4ccccc43)cs2)CC1 [Compound 2, 2-[5-methyl-3-(trifluoromethyl)-1H-pyrazol-1-yl]-1-[4-[4-[[[(1R)-1,2,3,4-tetrahydro-1-naphthalenyl]amino]methyl]-2-thiazolyl]-1-piperidinyl]ethanone] | 100 | 28 | 93 |  |  |  |
| Cc1cc(C(F)(F)F)nn1CCC(=O)N1CCC(c2nc(C(=O)N(C)[C@@H]3CCCc4ccccc43)cs2)CC1 [Compound 5, N-methyl-2-[1-[3-[5-methyl-3-(trifluoromethyl)-1H-pyrazol-1-yl]-1-oxopropyl]-4-piperidinyl]-N-[(1R)-1,2,3,4-tetrahydro-1-naphthalenyl]-4-thiazolecarboxamide] |  |  |  | 57 | 17 | 0 |
| CC(=O)N(Cc1csc(C2CCN(C(=O)Cn3nc(C(F)(F)F)cc3C)CC2)n1)[C@@H]1CCCc2ccccc21 [Compound 3, N-[[2-[1-[2-[5-methyl-3-(trifluoromethyl)-1H-pyrazol-1-yl]acetyl]-4-piperidinyl]-4-thiazolyl]methyl]-N-[(1R)-1,2,3,4-tetrahydro-1-naphthalenyl]acetamide] | 85 | 55 | 53 |  |  |  |
| Cc1cc(C(F)(F)F)nn1CC(=O)N1CCC(c2nc(CN(C)[C@@H]3CCCc4ccccc43)cs2)CC1 [Compound 1, 1-[4-[4-[[methyl[(1R)-1,2,3,4-tetrahydro-1-naphthalenyl]amino]methyl]-2-thiazolyl]-1-piperidinyl]-2-[5-methyl-3-(trifluoromethyl)-1H-pyrazol-1-yl]ethanone] | 100 | 72 | 99 |  |  |  |
| CCOC(=O)C(C(=O)N1CCC(c2nc(C(=O)N(C)C3CCCc4ccccc43)cs2)CC1)n1nc(C(F)(F)F)cc1C (stereo not drawn) [Compound 6, ethyl 4-[4-[[methyl(1,2,3,4-tetrahydro-1-naphthalenyl)amino]carbonyl]-2-thiazolyl]-α-[5-methyl-3-(trifluoromethyl)-1H-pyrazol-1-yl]-β-oxo-1-piperidinepropanoate] |  |  |  | 17 | 72 | 0 |
| Cc1cc(C(F)(F)F)nn1CC(=O)N1CCC(c2nc(CN(C=O)[C@@H]3CCCc4ccccc43)cs2)CC1 [Compound 4, N-[[2-[1-[2-[5-methyl-3-(trifluoromethyl)-1H-pyrazol-1-yl]acetyl]-4-piperidinyl]-4-thiazolyl]methyl]-N-[(1R)-1,2,3,4-tatrahydro-1-naphthalenyl]formamide] | 87 | 0 | 26 |  |  |  |
